The values below are quoted from earlier work in PMC4060611 (Inorganic Chemistry, 2014).

Counter-ions that a name gives are not always drawn. Like-named read-outs stand apart in the source and are kept apart here.

For series [1] the following is noted: 0 to 500 μM, 72 h incubation.
Experiment in series [2]: not given
This is another data set of the same source.

In the case of “europium compound of 1,4,7,10-tetraazacyclododecane-1,4,7,10-tetraacetic acid [[Eu-DOTA]^−]”, the cellular accumulation entry was “negligible”. The “effect on cell viability” value in series [1] was “negligible effect”.
On to Texas Red, for which the quantum yield in series [2] (in water) is 30%.
With `NC(=O)CN1CCN(CC(N)=O)CCN(CC(N)=O)CCN(CC(N)=O)CC1.[Eu+3]` [[Eu-DOTAm]^3+], the “cell association relative to [Eu-DOTA]−” value was 5 times.
Regarding `CCN1C(=CC=CC=CC2=[N+](CCCCCC(=O)O)c3ccc(S(=O)(=O)O)cc3C2(C)C)C(C)(C)c2cc(S(=O)(=O)[O-])ccc21` [Cy5], the quantum yield in series [2] (in PBS) was 30%.
With `CCN1C(=CC=CC2=[N+](CCCCCC(=O)O)c3ccc(S(=O)(=O)O)cc3C2(C)C)C(C)(C)c2cc(S(=O)(=O)[O-])ccc21` [Cy3], the quantum yield in series [2] (in PBS) is given as 4%.
For `C=C[C@H]1C[N@@]2CC[C@H]1C[C@H]2[C@H](O)c1ccnc2ccc(OC)cc12` [quinine sulfate], the “quantum yield Φr” value in series [2] (in 0.1 M sulfuric acid) is 0.577.
